ChEMBL document CHEMBL1201862, “PubChem BioAssay data set” (2004)
Calls of active or inactive are those of the source. Cut-off read from the data, not from the text of the source, for most assays here: actives have a measured EC50 and inactives only a lower limit.

Experiments:
cells = assay type: functional
[1] = molecular target: T1, Heat shock factor protein 1 (Mus musculus, UniProt P38532); assay: HSF1 potentiators in luciferase reporter cells, confirmation, cell-based, NIH3T3, luminescence, dose retest (AID 435004); assay type: functional;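 note: stress induced by proteasome inhibitor MG132 added 30 min after compound; luciferase reporter driven by HSF1 response element in NIH3T3 cells; actives raise luminescence as potentiators of the MG132 stress response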
T1 sequence (P38532 whole entry): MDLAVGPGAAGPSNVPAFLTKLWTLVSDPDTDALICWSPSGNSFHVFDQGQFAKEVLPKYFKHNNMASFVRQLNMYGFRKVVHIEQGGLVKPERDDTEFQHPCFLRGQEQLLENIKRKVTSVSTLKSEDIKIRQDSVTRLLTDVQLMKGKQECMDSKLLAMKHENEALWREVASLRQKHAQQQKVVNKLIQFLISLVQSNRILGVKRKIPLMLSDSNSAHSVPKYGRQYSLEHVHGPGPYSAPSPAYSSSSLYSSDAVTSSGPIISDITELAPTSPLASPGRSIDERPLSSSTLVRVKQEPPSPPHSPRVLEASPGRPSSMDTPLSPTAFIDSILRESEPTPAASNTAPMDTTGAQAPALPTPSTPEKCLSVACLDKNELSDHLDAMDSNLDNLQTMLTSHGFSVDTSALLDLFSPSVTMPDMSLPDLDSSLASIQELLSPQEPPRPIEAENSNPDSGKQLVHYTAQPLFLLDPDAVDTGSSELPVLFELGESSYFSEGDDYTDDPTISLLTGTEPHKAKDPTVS

[2] = molecular target: T2, Microphthalmia-associated transcription factor (Homo sapiens, UniProt O75030); assay: TRPM1 promoter luciferase signal decrease, dose response, MITF inhibitor project, cell-based, SK-MEL-5, cherry-picked, set 3 (AID 493073); assay type: functional
T2 sequence (O75030 whole entry): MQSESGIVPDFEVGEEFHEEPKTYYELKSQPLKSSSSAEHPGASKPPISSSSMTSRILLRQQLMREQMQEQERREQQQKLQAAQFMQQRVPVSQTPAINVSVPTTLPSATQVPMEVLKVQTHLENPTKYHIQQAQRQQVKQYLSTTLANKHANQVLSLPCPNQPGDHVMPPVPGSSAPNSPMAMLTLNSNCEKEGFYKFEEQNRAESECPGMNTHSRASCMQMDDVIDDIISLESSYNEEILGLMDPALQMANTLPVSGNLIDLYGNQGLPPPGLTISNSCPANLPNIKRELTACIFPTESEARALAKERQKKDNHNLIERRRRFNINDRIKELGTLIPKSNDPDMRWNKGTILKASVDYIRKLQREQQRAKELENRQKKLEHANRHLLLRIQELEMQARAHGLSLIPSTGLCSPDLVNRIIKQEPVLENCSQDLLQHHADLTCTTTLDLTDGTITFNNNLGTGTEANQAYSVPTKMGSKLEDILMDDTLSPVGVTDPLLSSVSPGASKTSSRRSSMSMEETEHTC

[3] = NIH-3T3 fibroblast cytotoxicity, dose response, cytotoxicity control, cell-based, fluorescence, Alamar Blue, secondary assay (AID 2327); assay type: functional;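 note: NIH-3T3 mouse fibroblasts cultured with fluconazole at 8 µg/mL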
[4] = C. albicans growth with fluconazole, confirmation, fluorescence, retest (AID 2467); assay type: functional, cell-based
[5] = inhibitors of intracellular T. cruzi replication, confirmation, NIH3T3 host cells, beta-gal luminescence (AID 2044); assay type: functional, cell-based;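 note: intracellular parasites grown in NIH/3T3 mouse fibroblasts as host cells; luminescent beta-galactosidase reporter signal from transgenic T. cruzi replicating inside host cells; inhibitors lower the luminescence signal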
[6] = cytotoxicity toward NIH3T3 fibroblasts, dose response, counter-screen, cell-based, ATP luminescence, mouse fibroblasts (AID 2010); assay type: functional;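 note: cells exposed to compound for about 90 hours before reading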
[7] = molecular target: Luciferin 4-monooxygenase (Photinus pyralis, UniProt P08659); assay: firefly luciferase enzyme inhibitors, dose response, biochemical, luminescence (AID 1891)
Chain of Luciferin 4-monooxygenase (P08659 whole entry): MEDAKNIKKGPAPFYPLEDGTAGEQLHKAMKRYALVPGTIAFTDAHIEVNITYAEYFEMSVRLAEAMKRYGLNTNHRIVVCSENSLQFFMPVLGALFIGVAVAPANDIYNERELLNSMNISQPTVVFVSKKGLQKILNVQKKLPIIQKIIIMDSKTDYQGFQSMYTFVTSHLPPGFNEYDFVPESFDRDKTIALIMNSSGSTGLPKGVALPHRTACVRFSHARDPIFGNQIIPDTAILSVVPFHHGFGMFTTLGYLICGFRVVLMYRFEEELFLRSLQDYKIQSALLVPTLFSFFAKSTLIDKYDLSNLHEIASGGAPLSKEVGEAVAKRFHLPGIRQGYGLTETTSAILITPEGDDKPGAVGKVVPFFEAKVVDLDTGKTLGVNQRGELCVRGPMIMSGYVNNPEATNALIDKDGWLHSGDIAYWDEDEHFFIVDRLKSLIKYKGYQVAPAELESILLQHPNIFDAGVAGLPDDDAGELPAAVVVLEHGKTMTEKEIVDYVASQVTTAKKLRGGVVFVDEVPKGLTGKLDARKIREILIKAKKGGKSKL

[8] = Luminescence Cell-Based Dose Confirmation HTS to Identify Inhibitors of Platelet Dense Granule Release. [Related pubchem assays: 1663 (Primary HTS), 1678 (Summary of Project)]; assay type: functional
[9] = molecular target: T3, RNA-binding protein pos-1 (Caenorhabditis elegans, UniProt G5EF15); assay: inhibitors of POS-1/mex-3 RNA binding, dose response, biochemical, fluorescence polarization (AID 1964);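 note: purified POS-1 fused to maltose binding protein made in E. coli; potency of compounds blocking POS-1 binding to fluorescent RNA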
T3 sequence (G5EF15 whole entry): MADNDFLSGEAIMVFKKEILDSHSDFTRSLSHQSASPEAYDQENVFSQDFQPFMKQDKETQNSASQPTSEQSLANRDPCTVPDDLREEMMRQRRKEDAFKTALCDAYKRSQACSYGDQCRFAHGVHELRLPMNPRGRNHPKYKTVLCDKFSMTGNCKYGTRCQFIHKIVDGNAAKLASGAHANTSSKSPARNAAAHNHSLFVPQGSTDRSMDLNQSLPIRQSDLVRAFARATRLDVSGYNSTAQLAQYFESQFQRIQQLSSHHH

[10] = molecular target: T4, Zinc finger protein mex-5 (Caenorhabditis elegans, UniProt Q9XUB2); assay: MEX-5/TCR-2 RNA interaction inhibitors, dose response, biochemical, C. elegans, fluorescence polarization (AID 1960)
T4 sequence (Q9XUB2 whole entry): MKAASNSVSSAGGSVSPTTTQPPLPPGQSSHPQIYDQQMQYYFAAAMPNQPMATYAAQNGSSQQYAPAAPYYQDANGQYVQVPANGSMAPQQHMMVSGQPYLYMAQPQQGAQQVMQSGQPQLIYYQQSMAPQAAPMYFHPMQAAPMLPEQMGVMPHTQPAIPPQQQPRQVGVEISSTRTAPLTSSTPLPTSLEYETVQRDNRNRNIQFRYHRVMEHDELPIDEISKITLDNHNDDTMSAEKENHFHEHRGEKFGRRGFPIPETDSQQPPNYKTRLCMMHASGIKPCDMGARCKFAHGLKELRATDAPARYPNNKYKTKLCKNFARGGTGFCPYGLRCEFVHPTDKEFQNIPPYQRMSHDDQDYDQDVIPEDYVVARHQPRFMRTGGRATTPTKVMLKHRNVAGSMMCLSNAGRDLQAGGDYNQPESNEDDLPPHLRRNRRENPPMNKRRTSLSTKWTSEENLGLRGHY

[11] = molecular target: T1, Heat shock factor protein 1; assay: inhibition of MG132-induced HSE-luciferase signal, confirmation, cell-based, NIH3T3, luminescence, dose retest (AID 2382); assay type: functional;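 note: NIH3T3 fibroblasts with HSF1-driven luciferase reporter stressed by proteasome inhibitor MG132; luminescence from HSF1-driven luciferase expression after 8 hours of MG132 stress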
Cytochrome P450 2D6 = Cytochrome P450 2D6 (Homo sapiens, UniProt P10635);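 note: CYP2D6 member of a cytochrome P450 panel assay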
Chain of Cytochrome P450 2D6 (P10635 whole entry, the tested form may be a part): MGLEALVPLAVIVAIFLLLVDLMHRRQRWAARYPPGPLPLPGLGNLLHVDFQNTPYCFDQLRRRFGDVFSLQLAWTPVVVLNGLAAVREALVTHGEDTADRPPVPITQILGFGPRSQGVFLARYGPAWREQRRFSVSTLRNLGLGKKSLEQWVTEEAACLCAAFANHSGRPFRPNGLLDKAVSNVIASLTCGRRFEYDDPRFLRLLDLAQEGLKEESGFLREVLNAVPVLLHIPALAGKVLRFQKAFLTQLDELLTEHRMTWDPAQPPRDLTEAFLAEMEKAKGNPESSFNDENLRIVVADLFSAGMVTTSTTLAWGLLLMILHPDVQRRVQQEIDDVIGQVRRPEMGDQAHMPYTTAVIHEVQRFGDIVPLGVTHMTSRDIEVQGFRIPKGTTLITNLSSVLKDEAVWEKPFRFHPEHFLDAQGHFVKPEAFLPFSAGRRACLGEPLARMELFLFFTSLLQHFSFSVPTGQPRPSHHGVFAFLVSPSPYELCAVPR

[12] = inhibitors of clade B AD8 Env fusion, dose response, cell-based, cherry-pick (AID 652062); assay type: functional;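 note: luciferase signal from cell-cell fusion driven by HIV-1 clade B AD8 Env; potency is for inhibitors of fusion seen as a drop in luminescence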
[13] = HEp-2 cell cytotoxicity, dose response, cytotoxicity control for RSV inhibitor project, HTS (AID 2410); assay type: functional; conditions: human respiratory syncytial virus
[14] = molecular target: T5, Corticotropin-releasing factor receptor 2/Corticotropin-releasing factor-binding protein (Homo sapiens, UniProt P24387+Q13324); assay: activators of CRF receptor 2 with binding protein – uHTS hits, confirmation (AID 602473); assay type: functional; conditions: read-out: EC50_Mean
T5 sequence (Q13324 whole entry): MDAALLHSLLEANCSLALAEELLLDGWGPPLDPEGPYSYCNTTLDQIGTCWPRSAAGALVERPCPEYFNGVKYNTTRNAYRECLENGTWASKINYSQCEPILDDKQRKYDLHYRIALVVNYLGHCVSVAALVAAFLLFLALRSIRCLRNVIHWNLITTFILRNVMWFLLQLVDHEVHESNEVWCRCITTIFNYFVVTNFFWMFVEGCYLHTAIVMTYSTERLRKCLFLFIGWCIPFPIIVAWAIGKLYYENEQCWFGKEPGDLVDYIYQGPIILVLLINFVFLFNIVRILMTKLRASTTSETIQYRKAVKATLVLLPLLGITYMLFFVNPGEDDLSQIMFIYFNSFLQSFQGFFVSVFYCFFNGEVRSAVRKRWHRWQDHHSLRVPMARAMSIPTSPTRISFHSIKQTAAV
T5 sequence (P24387 whole entry): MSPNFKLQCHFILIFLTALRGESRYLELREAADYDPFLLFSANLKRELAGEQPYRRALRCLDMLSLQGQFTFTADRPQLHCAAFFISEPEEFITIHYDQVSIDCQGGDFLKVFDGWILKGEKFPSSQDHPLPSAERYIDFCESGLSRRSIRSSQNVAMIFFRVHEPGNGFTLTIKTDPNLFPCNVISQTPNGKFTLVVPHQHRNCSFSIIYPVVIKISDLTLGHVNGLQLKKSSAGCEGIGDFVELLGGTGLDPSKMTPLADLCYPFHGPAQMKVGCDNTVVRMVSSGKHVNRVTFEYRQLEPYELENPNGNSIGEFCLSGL

Compound: CSc1nn(-c2ccc(C(=O)OCC(=O)NC(=O)NC(C)C)cc2)c(=S)s1
- IC50 (cells): 13.2 µM (active)

Compound: O=C(OCc1nc2ccccc2s1)c1ccc(Br)o1
- IC50 (cells): 11.9 µM (active)

Compound: Cn1c(=O)oc2cc(S(=O)(=O)N3CCCCC3)ccc21
- EC50 [1]: > 260 µM (inactive)

Compound: O=C(/C=C/c1ccc([N+](=O)[O-])s1)N1CCCCC1
- AC50 [2]: 4.16 µM (active)

Compound: COc1cccc2s/c(=N/C(=O)CS(=O)(=O)c3ccc(Cl)cc3)n(C)c12
- EC50 [3]: > 160 µM (inactive)
- EC50 [4]: 2.16 µM (active)
- EC50 [5]: 0.34 µM (active)
- EC50 [6]: > 60 µM (not active)

Compound: Cc1cccc(N2C(=O)NC(=O)/C(=C/Nc3ccccc3N)C2=O)c1
- EC50 [3]: > 160 µM (inactive)
- EC50 [4]: > 38 µM (not active)

Compound: O=C1Nc2ccccc2C1=Nc1ccc(-c2nnc3n2CCCCC3)cc1
- EC50 [7]: > 112 µM (not active)
- EC50 [8]: > 112 µM (not active)

Compound: CC1(C)CC(=O)C2=C(C1)OC(N)=C(C#N)C2c1ccccc1OC(=O)N1CCOCC1 (stereo unspecified)
- EC50 [9]: > 300 µM (not active)
- EC50 [10]: > 300 µM (not active)

Compound: O=C(N/N=C\C=C\c1ccco1)c1cncc(Br)c1
- IC50 (cells): > 50 µM (active)

Compound: Cc1cc(C)c2oc(C(=O)Nc3ccc(S(=O)(=O)Nc4nccc(C)n4)cc3)cc(=O)c2c1
- EC50 [11]: > 195 µM (not active)

Compound: COC(=O)C1(Cc2ccccc2)NC(c2ccccc2C)C2C(=O)N(c3ccc4c(c3)OCO4)C(=O)C21 (stereo unspecified)
- EC50 [11]: > 195 µM (not active)

Compound: Cc1ccc(NC(=O)Cc2ccc(-n3cccc3)cc2)c(C)c1
- EC50 [11]: > 195 µM (not active)

Compound: CCOC(=O)c1sc(C)c2c1NC(C)(c1cccc3ccccc13)NC2=O (stereo unspecified)
- EC50 [1]: > 260 µM (inactive)

Compound: Cc1ccsc1/C=N/NC(=O)c1ccncc1
- IC50 (cells): 3.02 µM (active)

Compound: Cc1cccn2c(=O)c3cc(C(=O)NCC4CCCO4)c(=N)n(CCc4ccccc4)c3nc12 (stereo unspecified)
- EC50 [9]: 102 µM (active)
- EC50 [10]: 7.9 µM (inconclusive)

Compound: Cc1nc2ccc(N3CCN(C)CC3)cc2nc1C
- EC50 [9]: > 300 µM (not active)
- EC50 [10]: > 300 µM (not active)

Compound: Clc1ccccc1-c1nc2ccccc2c2nc3ccccc3n12
- EC50 [3]: > 150 µM (inactive)
- EC50 [4]: 12.2 µM (active)

Compound: CCCCOC(=O)CSC1=C(C#N)C(c2ccccc2OCC)C(C#N)C(=O)N1 (stereo unspecified)
- EC50 [9]: > 300 µM (not active)
- EC50 [10]: > 300 µM (inconclusive)

Compound: Cc1ccc(C(=O)N/C(=C\c2cccc([N+](=O)[O-])c2)C(=O)NCc2ccncc2)cc1
- EC50 [7]: > 112 µM (not active)
- EC50 [8]: 38.4 µM (active)

Compound: COc1ccc(-n2c(C)c(C(C)=O)c(C(C)=O)c2C)cc1
- EC50 [11]: > 195 µM (not active)

Compound: CC(=O)NC(=O)NC1OC(=O)C(Cl)=C1Cl (stereo unspecified)
- EC50 [1]: > 260 µM (inconclusive)

Compound: Cc1cccc(NC(=O)CCSc2nnc(Cc3ccccc3)o2)c1
- IC50 (cells): 39.8 µM (active)

Compound: O=C(CN1CCN(C(=O)c2ccccc2)CC1)Nc1ncc(Br)cc1Br
- EC50 [11]: > 195 µM (not active)

Compound: Cc1ccc(C)c(S(=O)(=O)Nc2ccccc2C(=O)Nc2cc(C)on2)c1
- EC50 [3]: > 160 µM (inactive)
- EC50 [4]: 1.28 µM (active)

Compound: O=C(Cc1c[nH]c2ccccc12)N/N=C/c1ccccc1O
- EC50 [7]: > 112 µM (not active)
- EC50 [8]: > 112 µM (not active)

Compound: CC(c1ccc(Cl)cc1)n1c(S)nnc1-c1ccc2ccccc2n1 (stereo unspecified)
- EC50 [3]: > 160 µM (inactive)
- EC50 [4]: 4.24 µM (active)
- AC50 (Cytochrome P450 2D6): 39.8 µM (inconclusive)

Compound: CC(OC(=O)c1nsc(Cl)c1Cl)C(=O)NCc1ccc2c(c1)OCO2 (stereo unspecified)
- EC50 [11]: > 195 µM (not active)

Compound: Cc1ccccc1NC(=O)CSc1nc(Nc2ccccc2)nc(N2CCOCC2)n1
- EC50 [1]: > 260 µM (inactive)

Compound: CC(=O)NCc1cn2c(C)csc2n1
- EC50 [7]: > 112 µM (not active)
- EC50 [8]: > 112 µM (not active)

Compound: Cc1ccc(-c2nnc(SCC(=O)Nc3nccs3)n2N)cc1
- EC50 [11]: > 195 µM (not active)

Compound: Cn1c(CN2CCCCC2)nc2cc(NC(=O)c3ccc(Cl)cc3)ccc21
- AC50 [12]: 28.7 µM (active)
- AC50 (Cytochrome P450 2D6): 0.0316 µM (inconclusive)

Compound: O=C(NCC(=O)N1CCN(c2ccccc2O)CC1)c1ccc(Br)o1
- EC50 [11]: > 195 µM (not active)

Compound: O=C(Nc1nc2ccccc2[nH]1)c1ccc(OC(F)F)cc1
- EC50 [1]: > 260 µM (inconclusive)

Compound: O=C(CCCSc1nc2ccccc2[nH]1)N1CCN(c2ccc([N+](=O)[O-])cc2)CC1
- EC50 [1]: > 260 µM (inactive)

Compound: COc1ccc(Cn2nnnc2CN2CCc3ccccc3C2)cc1
- EC50 [11]: > 195 µM (not active)

Compound: CCCCN1CCc2c1nc1ccc(Br)cc1c2N
- CC50 [13]: 14.1 µM (active)
- AC50 [2]: 12.2 µM (active)

Compound: COC(=O)c1c(C(=O)OC)c2n(c1C)Cc1ccccc1C2
- EC50 [9]: > 300 µM (not active)
- EC50 [10]: 43.7 µM (active)

Compound: COc1ccc(N(CC(=O)N/N=C/c2ccc(-c3ccc([N+](=O)[O-])cc3)o2)S(=O)(=O)c2ccc(C)cc2)cc1
- EC50 [7]: > 112 µM (not active)
- EC50 [8]: > 112 µM (not active)

Compound: CC(=O)c1cc(NC(=O)c2ccc(Cl)cc2)c(=O)oc1/C=C/N(C)C
- EC50 [9]: 57.3 µM (active)
- EC50 [10]: 4.07 µM (active)
- EC50 [14]: 5 µM (active)
